# Assay results reported in patent publication US11319526B2, “Methods and compositions for making antibodies and antibody derivatives with reduced core fucosylation” (Seagen Inc., priority 2008, dated 2022).
# Where two headings read alike, the source gives them in different places.
# Assays:
# [1] = system: antibody core fucosylation in CHO DG44 cell line producing h1F6; assay: Effect of fucose analogs on antibody core fucosylation (h1F6 from CHO DG44 culture); format: cell-based, Chinese hamster; conditions: day 5; for inhibition at 50 µM: 50 μM fucose analog; for inhibition at 1000 µM / Inhibition at 1 mM: 1 mM fucose analog
# Method: Media was supplemented with insulin like growth factor (IGF), penicillin, streptomycin and either 1 mM or 50 μM of the fucose analog (prepared as described supra). On day 5 post inoculation, the culture was centrifuged at 13000 RPM for 5 minutes to pellet cells; antibodies were then purified from supernatant.
# (§1) Antibody purification was performed by applying the conditioned media to protein A resin pre-equilibrated with 1× phosphate buffered saline (PBS), pH 7.4. After washing resin with 20 resin bed volumes of 1×PBS, antibodies were eluted with 5 resin bed volumes of Immunopure IgG elution buffer (Pierce Biotechnology, Rockford, Ill.). A 10% volume of 1M tris pH 8.0 was added to neutralize the eluted fraction.
# [2] = system: CHO DG44 cell line producing h1F6; assay: Incorporation of fucose analogs into antibodies (h1F6 from CHO DG44 culture); format: cell-based, Chinese hamster; conditions: 1 mM
# Method: The effects of fucose analogs on antibody core fucosylation were tested at concentrations of […] and 1 mM as follows: A CHO DG44 cell line producing a humanized IgG1 anti-CD70 monoclonal antibody, h1F6 (see International Patent Publication WO 06/113909) was cultured at 7.5×10^5 cells per mL in 2 mLs of CHO culture media at 37°, 5% CO2 and shaking at 100 RPM in a 6 well tissue culture plate. Media was supplemented with insulin like growth factor (IGF), penicillin, streptomycin and either 1 mM or 50 μM of the fucose analog (prepared as described supra). On day 5 post inoculation, the culture was centrifuged at 13000 RPM for 5 minutes to pellet cells; antibodies were then purified from supernatant.
# as §1, with “fraction. The amount of non-core fucosylated antibody produced was determined as described in Example 7.” for “fraction.”
# Certain other fucose analogs were tested for their ability to be incorporated into antibodies. These fucose analogs were tested at concentrations of 50 μM and 1 mM using the methodology as described above and in Example 7.
# [3] = Cricetulus griseus, CHO-DG44, 120 h, Table 1, inhibition of core fucosylation of h1F6, read-out: Inhibition at 50 μM
# [4] = Cricetulus griseus, CHO-DG44, 120 h, Table 1, ND = non-core fucosylated antibody not detected due to poor antibody production or inhibition of cell growth
# [5] = Table 1, inhibition of core fucosylation of h1F6
# [6] = Table 1, ND = non-core fucosylated antibody not detected due to poor antibody production or inhibition of cell growth
# [7] = Cricetulus griseus, CHO-DG44, 120 h, Table 2, read-out: Inhibition at 50 μM
# [8] = Cricetulus griseus, CHO-DG44, 120 h, Table 2
SMILES,"inhibition at 50 µM [1, 3]","inhibition at 1000 µM [1, 4]","inhibition at 50 µM [1, 7]","inhibition at 1000 µM [1, 8]",other results
"C#C[C@@H]1OC(OC(=O)C(C)C)[C@@H](OC(=O)C(C)C)[C@H](OC(=O)C(C)C)[C@@H]1OC(=O)C(C)C (stereo partly drawn) [Alkynyl fucose perisobutanoate, (3S,4R,5R,6S)-6-ethynyl-tetrahydro-2H-pyran-2,3,4,5-tetrayl tetrakis(2-methylpropanoate)]",> 80%,> 80%,,,
"C=CC1OC(OC(C)=O)C(OC(C)=O)C(OC(C)=O)C1OC(C)=O (stereo not drawn) [5-vinyl fucose tetraacetate, 5-ethylenylarabinose tetraacetate]",,,,,"inhibition at 50 µM [1, 5]: ~0%; Inhibition at 1 mM [1, 6]: ~4%"
"C=C=C[C@@H]1OC(OC(C)=O)[C@@H](OC(C)=O)[C@H](OC(C)=O)[C@@H]1OC(C)=O (stereo partly drawn) [Allene, (3S,4R,5R,6S)-6-(propa-1,2-dienyl)-tetrahydro-2H-pyran-2,3,4,5-tetrayl Tetraacetate]",,,23%,34%,
"C#C[C@@H]1OC(OC(=O)c2cccnc2)[C@@H](OC(=O)c2cccnc2)[C@H](OC(=O)c2cccnc2)[C@@H]1OC(=O)c1cccnc1 (stereo partly drawn) [Alkynyl fucose pemicotinate, (3S,4R,5R,6S)-6-ethynyl-tetrahydro-2H-pyran-2,3,4,5-tetrayl Tetranicotinate]",> 80%,> 80%,,,
"CC(=O)OC1C(C)OC(F)C(F)C1OC(C)=O (stereo not drawn) [1,2-difluoro-1,2-didexoy fucose peracetate]",,,,,inhibition at 50 µM ([1]; Table 2): >80%; Inhibition at 1 mM ([1]; Table 2): >80%
"CC(=O)O[C@H]([C@H](OC(C)=O)[C@H](CI)OC(C)=O)[C@@H](C=O)OC(C)=O [6-iodo-fucose tetraacetate, 6-iodofucose tetraacetate]",3%,30%,,,
"CC(=O)O[C@@H]1[C@H](C)O[C@@H](OC(C)=O)C(F)(F)[C@@H]1OC(C)=O [(2S,4R,5R,6S)-3,3-difluoro-6-methyl-tetrahydro-2H-pyran-2,4,5-triyl Triacetate]",,,0%,64%,
"CC(=O)OC1O[C@@H](C)[C@@H](OC(C)=O)[C@@H](OC(C)=O)[C@@H]1Cl (stereo partly drawn) [2-deoxy-2-chlorofucose triacetate, L-2-deoxy-2-chlorofucopyranose-1,3,4-triacetate]",,,17%,> 80%,
"C#CC(OC(=O)CCCCC)[C@@H](OC(=O)CCCCC)[C@@H](OC(=O)CCCCC)[C@@H](C=O)OC(=O)CCCCC (stereo partly drawn) [Alkynyl fucose tetra-n-hexanoate, 5-ethynylarabinose tetrahexanoate]",> 80%,> 80%,,,
"C#C[C@H]1OC(OC(=O)c2ccncc2)[C@@H](OC(=O)c2ccncc2)[C@H](OC(=O)c2ccncc2)[C@@H]1OC(=O)c1ccncc1 (stereo partly drawn) [Alkynyl fucose perisonicotinate, (3S,4R,5R,6R)-6-ethynyl-tetrahydro-2H-pyran-2,3,4,5-tetrayl Tetraisonicotinate]",> 80%,> 80%,,,
CC(=O)OC(C#N)[C@H]1OC(OC(C)=O)[C@@H](OC(C)=O)[C@@H]1OC(C)=O (stereo partly drawn) [5-cyanoarabinofuranose tetraacetate],5 to 10%,,,,
"CC(=O)O[C@@H]1[C@H](C)O[C@H](OC(C)=O)C(F)(F)[C@@H]1OC(C)=O [(2R,4R,5R,6S)-3,3-difluoro-6-methyl-tetrahydro-2H-pyran-2,4,5-triyl Triacetate]",,,0%,75%,
CC(=O)OC1OC(C#N)[C@@H](OC(C)=O)[C@@H](OC(C)=O)[C@@H]1OC(C)=O (stereo partly drawn) [5-cyanoarabinopyranose tetraacetate],20%,,,,
"CC(=O)O[C@H]1C[C@H](OC(C)=O)[C@H](OC(C)=O)[C@H](C)O1 [(2S,4S,5R,6S)-6-methyl-tetrahydro-2H-pyran-2,4,5-triyl Triacetate]",,,0%,36%,
"C#CC[C@@H]1OC(OC(C)=O)[C@@H](OC(C)=O)[C@H](OC(C)=O)[C@@H]1OC(C)=O (stereo partly drawn) [propargyl fucose tetraacetate, (3S,4R,5R,6S)-6-(prop-2-ynyl)-tetrahydro-2H-pyran-2,3,4,5-tetrayl tetraacetate]",~10%,10 to 20%,,,% Incorporation [2]: 80% (1 mM)
"CC(=O)OC1O[C@@H](C)[C@@H](OC(C)=O)[C@@H](OC(C)=O)[C@@H]1F (stereo partly drawn) [2-deoxy-2-fluorofucose peracetate, (3S,4R,5R,6S)-3-fluoro-6-methyl-tetrahydro-2H-pyran-2,4,5-triyl Triacetate]",,,> 80%,> 80%,
"CC(=O)OC1O[C@@H](COCc2ccccc2)[C@@H](OC(C)=O)[C@@H](OC(C)=O)[C@@H]1OC(C)=O (stereo partly drawn) [5-Benzyloxy fucose peracetate, (3S,4R,5R,6S)-6-(benzyloxymethyl)tetrahydro-2H-pyran-2,3,4,5-tetrayl tetraacetate]",,,0%,75%,
"C#CC1OC(OC(=O)C(C)(C)C)C(OC(=O)C(C)(C)C)C(OC(=O)C(C)(C)C)C1O (stereo not drawn) [Alkynyl fucose 1,2,3-(trimethylacetate), 5-ethynylarabinose 1,2,3-(trimethylacetate)]",,,,,"inhibition at 50 µM [1, 5]: ~0%"
"C#C[C@@H]1OC(OC(=O)CCOCCOC)[C@@H](OC(=O)CCOCCOC)[C@H](OC(=O)CCOCCOC)[C@@H]1OC(=O)CCOCCOC (stereo partly drawn) [Alkynyl fucose per-PEG ester, (3S,4R,5R,6S)-6-ethynyl-tetrahydro-2H-pyran-2,3,4,5-tetrayl tetrakis(3-(2-methoxyethoxy)propanoate)]",> 80%,> 80%,,,
"CC(=O)OC1O[C@@H](C(F)F)[C@@H](OC(C)=O)[C@@H](OC(C)=O)[C@@H]1OC(C)=O (stereo partly drawn) [6,6-difluorofucose tetraacetate, (3S,4R,5S,6R)-6-(difluoromethyl)tetrahydro-2H-pyran-2,3,4,5-tetrayl Tetraacetate]",,,> 80%,> 80%,
"CC#CC(OC(C)=O)[C@@H](OC(C)=O)[C@@H](OC(C)=O)[C@@H](C=O)OC(C)=O (stereo partly drawn) [5-propynyl fucose tetraacetate, 5-propynylarabinose tetraacetate]",50%,> 80%,,,
"C#C[C@@H]1OC(OC(=O)CC)[C@@H](OC(=O)CC)[C@H](OC(=O)CC)[C@@H]1OC(=O)CC (stereo partly drawn) [Alkynyl fucose tetrapropanonate, 5-ethynylarabinose tetrapropropanoate]",,,,,"inhibition at 50 µM [1, 5]: >80%; Inhibition at 1 mM [1, 6]: >80%"
"C#C[C@H](OC(C)=O)[C@H]1OC(OC)[C@@H](OC(C)=O)[C@@H]1OC(C)=O (stereo partly drawn) [1-methyl-2,3,4-triacetyl alkynyl fucose, (2R,3R,4S)-2-((S)-1-acetoxyprop-2-ynyl)-5-methoxy-tetrahydrofuran-3,4-diyl Diacetate]",68%,> 80%,,,
C[C@H](O)[C@@H](O)[C@@H](O)[C@H](F)C=O [2-deoxy-2-fluorofucose],,,> 80%,> 80%,
"C#CC1OC(OC(=O)C(C)(C)C)C(O)C(OC(=O)C(C)(C)C)C1O (stereo not drawn) [Alkynyl fucose di(trimethylacetate), 5-ethynylarabinose 1,3-(trimethylacetate)]",,,,,"inhibition at 50 µM [1, 5]: >80%"
"CC(=O)OC1O[C@@H]([C@]2(C)CO2)[C@@H](OC(C)=O)[C@@H](OC(C)=O)[C@@H]1OC(C)=O (stereo partly drawn) [5-methyloxiran-arabinose tetraacetate, (3S,4R,5S,6R)-6-((S)-2-methyloxiran-2-yl)-tetrahydro-2H-pyran-2,3,4,5-tetrayl tetraacetate]",~0%,35 to 40%,,,
"CC(=O)O[C@H]([C@H](OC(C)=O)[C@H](CCl)OC(C)=O)[C@@H](C=O)OC(C)=O [6-chloro-fucose tetraacetate, 6-chlorofucose tetraacetate]",20%,20 to 30%,,,
"C#CC(O)[C@@H](O)[C@@H](O)[C@H](O)C=O (stereo partly drawn) [Alkynyl fucose, 5-ethynylarabinose]",> 80%,,,,
"CC(=O)O[C@H]([C@H](OC(C)=O)[C@H](CC#N)OC(C)=O)[C@@H](C=O)OC(C)=O [6-cyano fucose tetraacetate, 6-cyanofucose tetraacetate]",30%,> 80%,,,
